Like-named read-outs stand apart in the source and are kept apart here.

In data set [1] the test system is transformed E. coli BL21(DE3). Nature of the data set: Growth of transformed E. coli in minimal medium (M9) with 1,2,4-triazole carboxamide protoxin. The format is cell-based. The following applies: 200 μM, kanamycin, 96-well plates. The text has this: It is widely appreciated that ribavirin is a broad-spectrum antiviral nucleoside analog. […] This would form the basis of a ready-made survival based bioassay for ribavirin-1-phosphate biosynthesis directed evolution (FIG. 20). In this selection scheme an E. coli library containing variants of the purine salvage enzyme hypoxanthine phosphoribosyltransferase (HPRT) is replicated into M9 media supplemented with 1,2,4-triazole carboxamide 7 “protoxin.” Active enzymes react triazole with endogenous PRPP 8 to form ribavirin monophosphate 5, an IMPDH poison resulting in growth inhibition. Negative controls with synthetically prepared 1,2,4-triazole carboxamide 7 and complementation experiments with guanosine monophosphate confirmed the validity of this method. Subsequently, a library of mutagenized HPRT in E. coli was evaluated. The assay can be improved by adding nutrients to the medium.
A small mutant library of ca. 1000 members was replica plated into 96-well plates containing minimal medium (M9), kanamycin and 200 μM synthetically prepared 1,2,4-triazole carboxamide (2), a concentration found to be non-lethal to transformed E. coli BL21(DE3) under these conditions. Plates were grown for 5 days at 37° C. and cell growth was visualized by staining with tetrazolium blue. […] The mutant and wild type HPRT enzymes were expressed as His×6 tagged proteins and purified to homogeneity (FIG. 22B).

For data set [2], the system named is E. coli BL21(DE3) expressing mutant HPRT. Description: Time course sensitivity determination by triazole dilution assay of HPRT mutant clones. The format is cell-based. The following applies: growth-impaired HPRT mutant clones, FIG. 22A. The source says:
FIG. 22A is a graph of time course of sensitivity of clones identified by triazole sensitivity screening methodology. FIG. 22B is a SDS-PAGE gel of expression and nickel affinity purification of 8B3 HPRT. Left is cell-free extract and right is purified 8B3.
It is widely appreciated that ribavirin is a broad-spectrum antiviral nucleoside analog. […] This would form the basis of a ready-made survival based bioassay for ribavirin-1-phosphate biosynthesis directed evolution (FIG. 20). In this selection scheme an E. coli library containing variants of the purine salvage enzyme hypoxanthine phosphoribosyltransferase (HPRT) is replicated into M9 media supplemented with 1,2,4-triazole carboxamide 7 “protoxin.” Active enzymes react triazole with endogenous PRPP 8 to form ribavirin monophosphate 5, an IMPDH poison resulting in growth inhibition. […] Subsequently, a library of mutagenized HPRT in E. coli was evaluated. […]
A small mutant library of ca. 1000 members was replica plated into 96-well plates containing minimal medium (M9), kanamycin and 200 μM synthetically prepared 1,2,4-triazole carboxamide (2), a concentration found to be non-lethal to transformed E. coli BL21(DE3) under these conditions. […] The mutant and wild type HPRT enzymes were expressed as His×6 tagged proteins and purified to homogeneity (FIG. 22B).

Data set [3] addresses T1, PNP (purine nucleoside phosphorylase) (Escherichia coli, UniProt P0ABP8).
T1 sequence (P0ABP8 1-239): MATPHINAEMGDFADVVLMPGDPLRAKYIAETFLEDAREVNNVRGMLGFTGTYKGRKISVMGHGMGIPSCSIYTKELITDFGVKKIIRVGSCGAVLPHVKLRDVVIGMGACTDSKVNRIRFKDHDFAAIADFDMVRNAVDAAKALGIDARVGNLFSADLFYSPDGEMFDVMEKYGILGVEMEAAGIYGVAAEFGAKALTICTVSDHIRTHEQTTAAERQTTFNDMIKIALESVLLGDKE
Description: Phosphorolysis of inosine vs. dideoxyinosine by PNP (basal activity, Lineweaver-Burke plot). The format is biochemical, E. coli. Conditions: apparent Km values.

Data set [4] addresses inosine monophosphate dehydrogenase (IMPDH) (Escherichia coli, UniProt P0ADG7). Conditions: cited from earlier work.
Substrate in data set [5]: OC[C@H]1O[C@@H](n2cnc3c(O)ncnc32)[C@H](O)[C@@H]1O
Nature of the data set: Phosphorolysis of inosine vs. dideoxyinosine by PNP (basal activity, Lineweaver-Burke plot). The following applies: other: substrate of PNP; reverse reaction (phosphorolysis, release of hypoxanthine) monitored with colorimetric assay of FIG. 7. The format is biochemical, E. coli.

inosine monophosphate dehydrogenase (IMPDH), sequence (P0ADG7 whole entry): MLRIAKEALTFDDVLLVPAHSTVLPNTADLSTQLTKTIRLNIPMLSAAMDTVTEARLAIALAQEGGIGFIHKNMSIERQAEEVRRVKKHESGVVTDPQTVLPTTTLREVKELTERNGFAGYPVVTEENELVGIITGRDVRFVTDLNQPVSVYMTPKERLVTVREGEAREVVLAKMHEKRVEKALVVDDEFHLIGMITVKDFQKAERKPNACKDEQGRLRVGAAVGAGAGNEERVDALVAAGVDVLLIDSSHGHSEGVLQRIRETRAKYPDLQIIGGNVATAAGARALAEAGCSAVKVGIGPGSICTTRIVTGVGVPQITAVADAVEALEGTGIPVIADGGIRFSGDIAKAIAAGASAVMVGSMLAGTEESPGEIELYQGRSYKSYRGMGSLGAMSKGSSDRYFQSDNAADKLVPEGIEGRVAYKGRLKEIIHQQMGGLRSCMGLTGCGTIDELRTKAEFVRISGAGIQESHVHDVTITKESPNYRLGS

As to `NC(=O)c1nc[nH]n1` [1,2,4-triazole carboxamide], the “lethality to transformed E. coli BL21(DE3)” value in data set [1] was “non-lethal”. The “susceptibility of HPRT mutants to triazole in vivo (versus wild type)” value in data set [2] was greater than 2 fold. Consider `O=c1[nH]cnc2c1ncn2[C@H]1CC[C@@H](CO)O1` [ddI, dideoxyinosine], for which, in data set [3], the “Km of ddI relative to that of inosine” value is greater than 100 times. For the molecule `NC(=O)c1ncn([C@@H]2O[C@H](COP(=O)(O)O)[C@@H](O)[C@H]2O)n1` [ribavirin-1-phosphate 5, ribavirin monophosphate], the “inhibition of IMPDH” value was “potent competitive inhibitor” in data set [4] and “competitive inhibitor” in data set [4] (listed as Ribavirin monophosphate).

B1: PNP (purine nucleoside phosphorylase) (Escherichia coli K-12) (protein)
chain: T1 sequence (P0ABP8 1-239)
Consider B1, for which the Km (commonly the substrate concentration at which the rate is half of its maximum) in data set [5] amounted to 56 µM.
